Laboratory results from PMC4792136, “A generic screening platform for inhibitors of virus induced cell fusion using cellular electrical impedance” (Scientific Reports, 2016).

Assays:
RSV [1] = tested on: RSV; design: method as in earlier work; settings: HEp-2 cells, MOI 0.2, 48 h, MTT; CPE data supplied by Biota Pharmaceuticals ref 35; cited from earlier work
RSV F protein [2] = molecular target: T1, RSV F protein (Human respiratory syncytial virus A, UniProt P03420); experiment: Cell content mixing T7 luciferase fusion assay, recombinant F, 96-well; assay type: cell-based
T1 construct: expressed in transfected cells; host or cells: Cos7 cells (transiently transfected), co-plated with BsrT7 cells
T1 sequence (P03420 137-574): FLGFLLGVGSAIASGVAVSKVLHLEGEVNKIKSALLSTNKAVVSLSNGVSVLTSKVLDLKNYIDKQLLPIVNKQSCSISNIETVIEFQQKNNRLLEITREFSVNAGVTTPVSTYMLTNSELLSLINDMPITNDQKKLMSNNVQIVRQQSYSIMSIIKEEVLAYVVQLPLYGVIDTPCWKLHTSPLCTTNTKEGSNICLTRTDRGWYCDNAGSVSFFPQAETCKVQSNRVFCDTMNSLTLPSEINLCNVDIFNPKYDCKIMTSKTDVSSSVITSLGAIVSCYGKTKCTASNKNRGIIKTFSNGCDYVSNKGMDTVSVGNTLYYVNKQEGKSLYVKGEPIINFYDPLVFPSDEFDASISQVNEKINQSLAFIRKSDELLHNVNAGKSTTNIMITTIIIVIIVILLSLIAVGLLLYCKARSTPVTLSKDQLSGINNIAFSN
T1 sequence (P03420 26-109): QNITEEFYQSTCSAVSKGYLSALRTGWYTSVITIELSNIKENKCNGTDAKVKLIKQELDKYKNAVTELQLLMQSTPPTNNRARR
Experimental: (§1) The protocol is an adaptation of that described by Bagai and Lamb[29]. Cos7 cells were transfected with a plasmid containing Renilla luciferase under T7 promoter control (pGL80-T7RL) and an RSV F expression vector. For live virus fusion assay, transfection media was removed after 2 h and replaced with SF media containing RSV (MOI of 2). Two h post infection (4 h post initial transfection) cells were trypsinized and re-suspended to 8 × 10^5 cells/ml. Compounds were serially diluted in SF Opti-MEM media and added to opaque bottom, white microtitre plates (Corning) at 50 μl/well along with 25 μl of both Cos7 and BsrT7 cells added to each well to obtain a final concentration of 5 × 10^4 cells/well. After 24 h, media was exchanged with 50 μl/well Opti-MEM media supplemented with 2% FBS and 8 ng/ml Enduren Live Cell Substrate (Promega). After 6 h at 37 °C in a humidified incubator supplemented with 5% CO2, the plates were read using a Lucy 2 luminometer with 1 sec integration time. Assays were performed in triplicate.

RSV F protein [3] = molecular target: T1, RSV F protein; experiment: Cell content mixing T7 luciferase fusion assay, recombinant F, 384-well; assay type: cell-based
Experimental: as §1
(§2) 384-well fusion assays were setup as per 96-well protocol with the following changes: Cos7 and BsrT7 cells were seeded at a final concentration of 1 × 10^4 cells/well. Compound titration was performed in a Biomek NX Laboratory Automation Workstation and added to a final volume of 25 μl/well. Luciferase activity was determined using an EnVision Multilabel reader (PerkinElmer).

RSV F protein [4] = molecular target: T1, RSV F protein; experiment: recombinant F CEI fusion assay, 384-well; assay type: cell-based
Excerpt: (§3) Impedance assays were setup in parallel to microscopy based fluorescent protein cytoplasmic mixing and cell content mixing T7 driven fusion assays. For testing small molecule inhibitors see cell content mixing, T7 driven reporter fusion assay protocol for cell infection, transfection and plating method. All other steps were as listed below.
(§4) Cos7-G cells were transfected with the RSV F expression vector (pCICO-Fopt) in 6 well plates using lipofectamine LTX as per manufacturer’s instructions (Invitrogen) or infected with RSV (MOI of 2). Four hours post infection/transfection, cells were trypsinized and re-suspended to 8 × 10^5 cells/ml. E-Plates were pre-blanked and Cos7-G and Cos7-R cells were seeded together at a 1:1 ratio for a final cell density of 5 × 10^4 cells/well. Plates were placed into the SP station, incubated at 37 °C in 5% CO2 and impedance was recorded every 15 min over 72 h.
as §2

RSV [5] = experiment: RSV CEI fusion assay, live virus, 96-well; assay type: cell-based, respiratory syncytial virus; settings: for IC50: human respiratory syncytial virus, read-out: RSV CEI 96 IC50
Excerpt: as §3, §4, §1

RSV F protein [6] = molecular target: T1, RSV F protein; experiment: recombinant F CEI fusion assay, 96-well; assay type: cell-based; settings: cells transfected with noncoding empty vector (eV)
Excerpt: as §3, §4
The protocol is an adaptation of that described by Bagai and Lamb[29]. Cos7 cells were transfected with a plasmid containing Renilla luciferase under T7 promoter control (pGL80-T7RL) and an RSV F expression vector. For live virus fusion assay, transfection media was removed after 2 h and replaced with SF media containing RSV (MOI of 2). […] After 6 h at 37 °C in a humidified incubator supplemented with 5% CO2, the plates were read using a Lucy 2 luminometer with 1 sec integration time. […]

RSV [7] = experiment: Plaque-reduction neutralization (PRNT) assay, RSV; assay type: cell-based; settings: human respiratory syncytial virus; RSV on vero cells; in Table S1 printed as ± followed by a range

SMILES: O=C(c1ccc(F)cc1)N1CCN2C(=O)c3ccncc3C12c1ccc(Cl)cc1 (centres unmarked) [BTA-1]
- CPE EC50 (RSV [1]): -6.5 log10 M
- IC50 (RSV F protein [2]): 3980 nM
- IC50 (RSV F protein [3]): 158000 nM
- IC50 (RSV F protein [4]): 6310 nM
- IC50 (RSV [5]): 398 nM

SMILES: O=C(c1ccoc1)N1CCN2C(=O)c3cc[n+]([O-])cc3[C@]12c1ccc(Cl)cc1 [BTA-4]
- CPE EC50 (RSV [1]): -7.6 log10 M
- IC50 (RSV F protein [2]): 1000 nM
- IC50 (RSV F protein [3]): 7940 nM
- IC50 (RSV F protein [4]): 2510 nM
- IC50 (RSV [5]): 39.8 nM

SMILES: O=C(c1ccc(F)cc1)N1CCN2C(=O)c3cc[n+]([O-])cc3C12c1ccc(Cl)cc1 (centres unmarked) [BTA-3]
- CPE EC50 (RSV [1]): -6.8 log10 M
- IC50 (RSV F protein [2]): 2510 nM
- IC50 (RSV F protein [3]): 31600 nM
- IC50 (RSV F protein [4]): 1000 nM
- IC50 (RSV [5]): 200 nM

SMILES: Cc1ocnc1C(=O)N1CCN2C(=O)c3ccncc3C21C1CCOCC1 (centres unmarked) [BTA-6]
- CPE EC50 (RSV [1]): -8.5 log10 M
- IC50 (RSV F protein [2]): 39.8 nM
- IC50 (RSV F protein [3]): 1000 nM
- IC50 (RSV F protein [4]): 200 nM
- IC50 (RSV [5]): 5.01 nM

SMILES: O=C1c2ccncc2[C@@]2(c3ccc(Cl)cc3)N1CCN2C(=O)C1CC1 [BTA-7]
- CPE EC50 (RSV [1]): -5.8 log10 M
- IC50 (RSV F protein [2]): 39800 nM
- IC50 (RSV F protein [4]): 12600 nM
- IC50 (RSV [5]): 794 nM

SMILES: Cc1ccc(CCCO)c(NCc2ccc3nc(NCCCN4CCOCC4)n(Cc4nc(C)ccc4O)c3c2)c1 [TMC-353121]
- change in cell impedance of control cells (RSV [5]; control (uninfected) cells): No change in cell impedance
- IC50 (RSV [5]): 0.794 nM
- effect on cell impedance of control cells (RSV F protein [6]): No effect on cell impedance
- IC50 (RSV [7]): 5.8 nM

SMILES: Cc1ocnc1C(=O)N1CCN2C(=O)c3ccncc3[C@@]21c1ccc(Cl)cc1 [BTA-5]
- CPE EC50 (RSV [1]): -6.6 log10 M
- IC50 (RSV F protein [2]): 12600 nM
- IC50 (RSV F protein [3]): 79400 nM
- IC50 (RSV F protein [4]): 2510 nM
- IC50 (RSV [5]): 501 nM

SMILES: O=C(c1ccoc1)N1CCN2C(=O)c3ccncc3[C@]12c1ccc(Cl)cc1 [BTA-2]
- CPE EC50 (RSV [1]): -7.9 log10 M
- IC50 (RSV F protein [2]): 158 nM
- IC50 (RSV F protein [3]): 2510 nM
- IC50 (RSV F protein [4]): 251 nM
- IC50 (RSV [5]): 20 nM
